Reference: US10633423B2, “IL-6-binding polypeptide complex” (AFFIBODY AB, priority 2014, dated 2020)
Blank lines part the entries; values can stand above or below the substance they belong to.

Experiments:
TNF = target: T1, TNF (Homo sapiens, UniProt P01375); test: ELISA binding activity of matured complexes, TNF (Example 13); conditions: approximate; plates coated with 0.5 μg/ml TNF
T1 construct: purchased R&D Systems
Method: The binding of TNF and IL-6 targeting complexes was analyzed in an ELISA assay. Half-area 96-well ELISA plates were directly coated at 4° C. overnight with 0.5 μg/ml of TNF or IL-6 in PBS buffer and the wells were blocked with 100 μl of 3% skim milk/PBS (137 mM NaCl, 2.7 mM KCl, 10 mM Na2HPO4, 1.8 mM KH2PO4) for 1 h at RT. Next, 30 μl of serially diluted complexes and control antibodies from a starting concentration of 1 μg/ml in 3% skim milk/PBS were added to each well. The plates were incubated for 2 h at RT followed by washing four times with PBST 0.05%. HRP conjugated anti-human IgG Fc secondary antibody (Pierce, cat. no. 31423) was diluted 1:5000 in 3% skim milk/PBS and added to the wells followed by 1 h incubation. After washing as described above, 30 μl ImmunoPure TMB substrate (Pierce, cat. no. 34014) was added to the wells and the plates were treated according to the manufacturer's recommendations. Adalimumab (Abbvie, LOT4435XH04) was used as a positive control for the TNF binding activity and as a negative control for the IL-6 binding activity. Furthermore, an irrelevant IgG (Jackson Immunoresearch, cat. no. Jac-009-000-003) was included as a negative control in both assays.

[1] = tested on: IL-6/TNF-dependent proliferation of TF-1 cells; test: TF-1 cell assay, stimulated with both IL-6 and TNF (Example 11); format: cell-based, human; conditions: TF-1 cells simultaneously stimulated with IL-6 and TNF
Method: TF-1 cells were cultured in RPMI1640 with L-glut (Lonza) supplemented with 10% FCS (Gibco), Pen-Strep (Lonza) and 2 ng/ml rhGM-CSF (R&D Systems). Prior to use, the cells were washed twice in RPMI1640 in the absence of rhGM-CSF. Cells were then counted and dispensed into 96 well flat bottomed plates at a density of 4×10^4 cells per well. […] The samples were incubated in the presence of either 0.099 nM rhIL-6 (R&D Systems, cat. no. 206-IL/CF), 0.023 nM rhTNF (R&D Systems, cat. no. 210-TA) or a combination of both cytokines. The pre-mixtures were transferred to wells containing TF-1 cells which were incubated for 72 h at 37° C. in a humidified 5% CO2 atmosphere. During the last four hours of incubation, 10 μl of CCK-8 (Fluka, Sigma Aldrich) was added per well to determine the number of proliferating cells. The absorbance was measured at 450 nm (Abs450) using a microplate reader (VICTOR^3, Perkin Elmer). The data on cell growth was assessed by non-linear regression to a four-parameter dose-response curve, and the half maximal inhibitory concentration (IC50) was determined using GraphPad Prism program. The inhibition of IL-6/TNF-dependent proliferation of TF-1 cells by the inhibitory molecules was as Abs450 minus control wells that contained cells but no IL-6.

[2] = tested on: IL-6 trans-signaling in human umbilical vein endothelial cells (HUVECs); test: HUVEC trans-signaling assay, MCP-1 readout; format: cell-based; conditions: Z variants fused to ABD variant PP013
Method: To address the trans-signaling pathway, a second assay was used. Herein, human umbilical vein endothelial cells (HUVECs) were stimulated with hIL-6 and soluble hIL-6Rα and the readout was the production of monocyte chemoattractant protein-1 (MCP-1). HUVECs (Lonza) were grown in EGM-2 bullet kit media (Lonza) and passaged in culture no more than eight times. Cells were grown until 75% confluence before use. Cells were detached using trypsin/EDTA (Lonza), resuspended and washed once in fresh medium. Next, cells were counted and dispensed into 96 well flat bottom plates at a density of 2×10^4 cells per well. Cells were cultured overnight at 37° C. in a humidified 5% CO2 atmosphere. […] The pre-mixed solutions with the test molecules and hIL-6/hIL-6Rα were then transferred to wells containing HUVECs, which were incubated for 24 h at 37° C. in a humidified 5% CO2 atmosphere. Cell free supernatant was collected after the incubation period and human MCP-1 levels were determined by sandwich ELISA using the MCP-1 Duoset ELISA development system (R&D Systems).
Half area 96-well ELISA plates were coated with anti-MCP-1 capture antibody (R&D Systems) at a concentration of 1 μg/ml. Plates were incubated overnight at 4° C., washed twice in tap water and blocked for 1 h in PBSC. […] The absorbance was measured at 450 nm using a microplate reader (Victor^3, Perkin Elmer).

[3] = RA patients, monotherapy, Gabay et al 2013; cited from earlier work

T1 sequence (P01375 77-233 limits assumed): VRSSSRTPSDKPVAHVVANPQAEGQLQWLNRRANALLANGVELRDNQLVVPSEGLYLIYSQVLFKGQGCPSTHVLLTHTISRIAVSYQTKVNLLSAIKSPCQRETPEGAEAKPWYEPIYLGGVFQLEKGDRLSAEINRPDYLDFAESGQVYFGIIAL

EC50 (TNF): 0.077 nM
Substance: Adalimumab

Substance: His6-Z04726: negative control Z variant Z04726 (SEQ ID NO:1553) with N-terminal His6-tag [reference compound]
blocking of TF-1 cell growth [1]: No effect

Substance: Z03638: control Z variant binding an irrelevant target; tested in fusion with ABD variant PP013 [reference compound]
inhibition of IL-6 mediated trans-signaling [2]: did not

Substance: tocilizumab
reduction of RA-related symptoms [3]: more effective than adalimumab
